Source: paper PMC12505664, “Enflicoxib for the long-term management of canine osteoarthritis—External validation of a population pharmacokinetic model in dogs with osteoarthritis” (Frontiers in Veterinary Science, 2025)
Read-outs that look alike come from different tables or passages of the source.

Tests used:
[1] = Maximum a posteriori Bayesian (MAPB) estimation of individual PK parameters in dogs with OA; format: in vivo
Excerpt: As a similar PK behavior between populations was concluded, the same popPK model could be used, and a Bayesian approach was used for the determination of individual enflicoxib and the pyrazol metabolite exposure in osteoarthritic animals.
A maximum a posteriori Bayesian (MAPB) estimation using the post hoc subroutine in NONMEM was used to provide the individual PK parameters in osteoarthritic dogs.
MAPB estimation applied likelihood maximization in the form of minimizing the objective function (minus 2 log likelihood), to estimate individual PK parameters of each dog with OA. In this analysis, the MAPB estimation incorporated both a priori PK information, that is, the established PK model of enflicoxib and the pyrazol metabolite in healthy Beagle dogs, and a posteriori PK data, which corresponds to PK data from osteoarthritic dogs. The individual PK parameters along with individual predicted PK profiles for each dog treated with enflicoxib were calculated by fitting the animal PK dataset, which includes dosing, sampling times, parent and metabolite levels, and covariate information, to the established population enflicoxib and the pyrazol metabolite PK model in healthy Beagle dogs.
The maximum a posteriori Bayesian (MAPB) estimation was applied to provide the most likely individual PK profile for each dog with OA, using the “POSTHOC” subroutine and $ESTIMATION command set to MAXEVAL=0 in NONMEM.
Individual PK parameters and individual PK profiles of enflicoxib and the pyrazol metabolite were estimated for each dog.
Finally, the Bayesian approach enabled the estimation of the main individual PK parameters of enflicoxib and the pyrazol metabolite. Using these individual PK parameters, predicted profiles for each animal were estimated, allowing the calculation of the derived exposure parameters, such as Cmax, Cmin, AUCτ, and T1/2 in all treated dogs. The distribution and the mean estimates of enflicoxib and the pyrazol metabolite PK parameters at selected time points are depicted in Supplementary Figures S3, S4, respectively.

dogs with OA = experiment: Safety assessment in the field clinical study (hematology, biochemistry, urine, adverse events); format: in vivo, client-owned dogs with OA; conditions: 6 months weekly treatment
Description: To assess safety, blood samples for hematology and biochemistry, as well as urine samples, were repeated on days 44 and 189. The following hematological and biochemical parameters were determined: red blood cell (RBC) count, white blood cell (WBC) total and differential count, platelet (thrombocyte) count and estimate, hematocrit, hemoglobin, and reticulocytes. Amylase, albumin, alkaline phosphatase, alanine-aminotransferase (ALT), aspartate-aminotransferase (AST), calcium, cholesterol, creatinine, creatine kinase, globulin, glucose, γ-Glutamyltransferase (γ-GT), magnesium, phosphorus, potassium, sodium, total bilirubin, total protein, and urea.
Urine samples were analyzed for blood/erythrocytes/hemoglobin, glucose, ketone bodies, protein, leukocytes, nitrite, specific weight, pH value, bilirubin, and urobilinogen.
Safety was also assessed by recording any adverse events (AEs) that occurred during the study, regardless of their nature, severity, or whether they were product-related or not.

[2] = parameters: method as in PMID 34854245; conditions: popPK model, cited from earlier work
[3] = parameters: method as in PMID 34160092; conditions: cited from earlier work
[4] = parameters: method as in PMID 34160092; conditions: previously validated method, cited from earlier work
Beagle dogs = test system: Beagle dogs; parameters: method as in PMID 34082759; conditions: cited from earlier work
canine osteoarthritis = test system: canine osteoarthritis; parameters: method as in Salichs et al., Vet Rec. 2022; conditions: ref Salichs et al., Vet Rec. 2022, cited from earlier work; for Number of animals presenting AEs (%): Emesis or nausea: AEs classified A, B or O; for Emesis and nausea: Number of events: AEs related to the GI system
[5] = overdose study, repeated weekly administrations, Beagle dogs; cited from earlier work
[6] = mean across weeks, Bayesian predicted profiles
[7] = interindividual variability as % CV
[8] = parent, typical value at 9.9 kg

NS(=O)(=O)c1ccc(N2N=C(C(F)(F)F)CC2c2ccc(F)cc2F)cc1 (centres unmarked) [Enflicoxib]
Time-dependent pharmacokinetics or over-accumulation ([1]; 6 months of weekly treatment): no evidence of time-dependent pharmacokinetics or over-accumulation | AUCτ [1, 6]: 3,810 ng/mL·d | Cmin [1, 6]: ~ 185 ng/mL | Cmax ([1]; mean, all weeks of weekly treatment, Bayesian predicted profiles): ≈ 1,173 ng/mL | Time to PK steady-state ([1]; weekly treatment): 4 weeks | Incidence and type of adverse events over time (dogs with OA): no tendency to increase over time | Hematological and biochemical parameters (dogs with OA; days 44 and 189): generally within the reference ranges | IIV of CL2/F (apparent clearance of irreversible biotransformation to pyrazol metabolite) [2, 7]: 49% | IIV of Lag Time (Tlag) [2, 7]: 68% | IIV of V/F (apparent volume of distribution in the central compartment) [2, 7]: 94% | IIV of absorption rate (ka) [2, 7]: 101% | Residual variability ([2]; log error model, % CV): 34% | Absorption rate (ka), estimate ([2]; parent): 0.220 hr – 1 | Lag Time (Tlag), estimate ([2]; parent): 0.249 h | CL1/F = θ5·(WGT/9.9)^0.75, θ5 estimate (apparent clearance to other elimination pathways) [2, 8]: 0.193 L/h | CL2/F = θ6·(WGT/9.9)^0.75, θ6 estimate (apparent clearance of irreversible biotransformation to pyrazol metabolite) [2, 8]: 0.520 L/h | V/F = θ4·(WGT/9.9)^1.0, θ4 estimate (apparent volume of distribution, central compartment) [2, 8]: 6.59 L | mean terminal elimination half-life (t 1/2) ([3]; Beagle dogs, oral): 20 h | Effect of food on absorption [3]: food increases absorption | Stability in dog plasma ([4]; following 4 freeze–thaw cycles): stable | Stability in dog plasma ([4]; nominally −20 °C for 402 days): stable | Stability in dog plasma ([4]; room temperature for 4 h): stable | Long-term stability in dog plasma samples ([4]; stored at −20 °C): ≥ 402 days | Tolerability in overdose study (Beagle dogs; 3 times the recommended dose (12 mg/kg) for 7 months): well-tolerated | Tolerability in overdose study (Beagle dogs; 5 times the recommended dose (20 mg/kg) for 3 months): well-tolerated | Number of animals presenting AEs (%): Emesis or nausea (canine osteoarthritis; Enflicoxib 2 mg/kg group n=60): 3 (5.0) | Emesis and nausea: Number of events (canine osteoarthritis; Enflicoxib 2 mg/kg group n=60): 3 | Diarrhoea / pasty stools: Duration range (canine osteoarthritis; Enflicoxib 2 mg/kg group n=60): 2 to 8 days | Diarrhoea / pasty stools: Mean duration (canine osteoarthritis; Enflicoxib 2 mg/kg group n=60): 5.6 days | Diarrhoea / pasty stools: Number of events (canine osteoarthritis; Enflicoxib 2 mg/kg group n=60): 3 | Diarrhoea / pasty stools: Treatment needed (canine osteoarthritis; Enflicoxib 2 mg/kg group n=60): 1 | Emesis and nausea: Mean duration (canine osteoarthritis; Enflicoxib 2 mg/kg group n=60): 3 days | Emesis and nausea: Treatment needed (canine osteoarthritis; Enflicoxib 2 mg/kg group n=60): 0 | Number of animals presenting AEs (%): Abdominal pain (canine osteoarthritis; Enflicoxib 2 mg/kg group n=60): 0 | Number of animals presenting AEs (%): Acute renal failure (canine osteoarthritis; Enflicoxib 2 mg/kg group n=60): 0 | Number of animals presenting AEs (%): Apathy (canine osteoarthritis; Enflicoxib 2 mg/kg group n=60): 1 (1.7) | Number of animals presenting AEs (%): Constipation (canine osteoarthritis; Enflicoxib 2 mg/kg group n=60): 0 | Number of animals presenting AEs (%): Diarrhoea or pasty stools (canine osteoarthritis; Enflicoxib 2 mg/kg group n=60): 4 (6.7) | Number of animals presenting AEs (%): Increased salivation (canine osteoarthritis; Enflicoxib 2 mg/kg group n=60): 0 | Number of animals presenting AEs (%): Polydipsia (canine osteoarthritis; Enflicoxib 2 mg/kg group n=60): 0 | Number of animals presenting AEs (%): Total (canine osteoarthritis; Enflicoxib 2 mg/kg group n=60): 6 (10%) | Number of animals presenting AEs (%): Weight loss (canine osteoarthritis; Enflicoxib 2 mg/kg group n=60): 1 (1.7) | Emesis and nausea: Duration range (canine osteoarthritis; Enflicoxib 2 mg/kg group n=60, upper end one animal): 1 to 6 days | Number of animals presenting AEs (%): Emesis or nausea (canine osteoarthritis; Enflicoxib 4 mg/kg group n=61): 7 (11.5) | Emesis and nausea: Number of events (canine osteoarthritis; Enflicoxib 4 mg/kg group n=61): 9 | Diarrhoea / pasty stools: Duration range (canine osteoarthritis; Enflicoxib 4 mg/kg group n=61): 1 to 4 days | Diarrhoea / pasty stools: Mean duration (canine osteoarthritis; Enflicoxib 4 mg/kg group n=61): 3 days | Diarrhoea / pasty stools: Number of events (canine osteoarthritis; Enflicoxib 4 mg/kg group n=61): 7 | Diarrhoea / pasty stools: Treatment needed (canine osteoarthritis; Enflicoxib 4 mg/kg group n=61): 3 | Emesis and nausea: Duration range (canine osteoarthritis; Enflicoxib 4 mg/kg group n=61): 1 to 3 days | Emesis and nausea: Mean duration (canine osteoarthritis; Enflicoxib 4 mg/kg group n=61): 1.4 days | Emesis and nausea: Treatment needed (canine osteoarthritis; Enflicoxib 4 mg/kg group n=61): 2 | Number of animals presenting AEs (%): Abdominal pain (canine osteoarthritis; Enflicoxib 4 mg/kg group n=61): 0 | Number of animals presenting AEs (%): Acute renal failure (canine osteoarthritis; Enflicoxib 4 mg/kg group n=61): 0 | Number of animals presenting AEs (%): Apathy (canine osteoarthritis; Enflicoxib 4 mg/kg group n=61): 2 (3.3) | Number of animals presenting AEs (%): Constipation (canine osteoarthritis; Enflicoxib 4 mg/kg group n=61): 0 | Number of animals presenting AEs (%): Diarrhoea or pasty stools (canine osteoarthritis; Enflicoxib 4 mg/kg group n=61): 5 (8.2) | Number of animals presenting AEs (%): Increased salivation (canine osteoarthritis; Enflicoxib 4 mg/kg group n=61): 1 (1.6) | Number of animals presenting AEs (%): Polydipsia (canine osteoarthritis; Enflicoxib 4 mg/kg group n=61): 1 (1.6) | Number of animals presenting AEs (%): Total (canine osteoarthritis; Enflicoxib 4 mg/kg group n=61): 12 (19.7) | Number of animals presenting AEs (%): Weight loss (canine osteoarthritis; Enflicoxib 4 mg/kg group n=61): 0 | Dose proportionality of pharmacokinetics [5]: dose-proportional pharmacokinetics
